For assay [1], the target named is T1, SirT1 (Homo sapiens, UniProt Q96EB6). The assay is described as follows: Sirtuin inhibitor screening pulldown assay (NAD+, azido-thiotripeptide, alkynyl-biotin; SDS-PAGE, silver stain). It counts as biochemical. The conditions noted are these: 500 μM inhibitor; sirtuin mixture, 5 μM SirT1, 500 μM NAD+, 200 μM 4-azido-BzlK(AcS)AAOMe; FIG. 10. On the procedure: (§1) The key criterion for our pulldown technology is the formation of a stalled thioimidate complex with a cross-linkable moiety at the active site on sirtuins. If the presence of a sirtuin inhibitor can interrupt thioimidate formation, there will be less or no sirtuin can be harvested later on.
T1 sequence (Q96EB6 whole entry, species assumed): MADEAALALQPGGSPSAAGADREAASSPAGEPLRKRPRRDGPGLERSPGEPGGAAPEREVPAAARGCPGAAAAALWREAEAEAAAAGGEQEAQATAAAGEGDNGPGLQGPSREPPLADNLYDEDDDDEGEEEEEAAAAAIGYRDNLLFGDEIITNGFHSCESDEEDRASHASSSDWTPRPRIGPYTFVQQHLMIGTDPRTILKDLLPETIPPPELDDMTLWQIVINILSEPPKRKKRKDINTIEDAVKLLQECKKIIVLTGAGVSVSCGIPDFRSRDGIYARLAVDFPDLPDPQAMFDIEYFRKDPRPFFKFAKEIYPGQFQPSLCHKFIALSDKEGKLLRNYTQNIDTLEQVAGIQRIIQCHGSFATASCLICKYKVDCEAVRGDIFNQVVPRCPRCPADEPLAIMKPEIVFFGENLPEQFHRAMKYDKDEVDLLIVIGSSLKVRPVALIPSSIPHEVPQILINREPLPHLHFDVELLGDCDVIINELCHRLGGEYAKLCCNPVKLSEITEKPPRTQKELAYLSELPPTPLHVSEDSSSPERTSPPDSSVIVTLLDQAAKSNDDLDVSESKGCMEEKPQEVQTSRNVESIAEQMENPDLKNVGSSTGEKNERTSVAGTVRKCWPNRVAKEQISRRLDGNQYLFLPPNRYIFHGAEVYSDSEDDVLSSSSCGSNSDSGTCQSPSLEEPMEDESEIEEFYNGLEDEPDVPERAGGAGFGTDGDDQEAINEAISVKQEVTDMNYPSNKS
(§2) Pulldown assay: a typical reaction was performed in 100 mM phosphate buffer pH 7.5 in a total volume of 100 μL. Each reaction contained 500 μM of NAD^+, 200 μM of 4-azido-BzlK(AcS)AAOMe, and various concentrations of potential inhibitors. One control experiment which contained 500 μM of NAD^+ only were run at the same time. Reactions were initiated by addition of enzymes with final concentrations: 5 μM for SirT1, 3.4 μM for SirT2, 4.9 μM for SirT3, 5.04 μM for SirT5 and 5.35 μM for SirT6. Reactions were incubated at 37° C. for 30 min and then alkynyl-biotin was added to each sample to a final concentration of 500 μM followed by 3 μL of freshly premixed click chemistry cocktail: CuSO4 (final concentration 1 mM), tris[(1-benzyl-1H-1,2,3-triazol-4-yl)methyl]amine (TBTA, final concentration 600 μM) and tris(2-carboxyethyl)phosphine hydrochloride (TCEP, final concentration 2 mM). The samples were incubated at room temperature for 30 min. Then, 50 μL streptavidin beads (pretreated with 1 mM of BSA) were added to each sample and the incubation were continued at room temperature for 1 h. […]

The target of the next assay is T2, SirT5 (Homo sapiens, UniProt Q9NXA8).
T2 construct: SirT5(34-302); poly histidine tag (N); made in house; host or cells: E. coli BL21-CodonPlus(DE3)-RIPL
T2 sequence (Q9NXA8 34-302): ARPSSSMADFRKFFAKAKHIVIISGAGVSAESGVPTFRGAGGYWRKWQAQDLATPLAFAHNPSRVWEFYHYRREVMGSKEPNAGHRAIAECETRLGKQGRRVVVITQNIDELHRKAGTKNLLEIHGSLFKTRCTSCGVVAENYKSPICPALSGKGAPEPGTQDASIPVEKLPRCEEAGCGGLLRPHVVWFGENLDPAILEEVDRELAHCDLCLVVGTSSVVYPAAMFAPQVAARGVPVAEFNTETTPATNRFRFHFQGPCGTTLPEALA
The description is as above. It counts as biochemical. Conditions: 500 μM inhibitor; sirtuin mixture, 5.04 μM SirT5, 500 μM NAD+, 200 μM 4-azido-BzlK(AcS)AAOMe; FIG. 10. On the procedure:
as §1, §2

The target in assay [2] is T1, SirT1. The experiment in a line: HPLC deacetylation assay of SirT1 with p53mer. It counts as biochemical. The conditions noted are these: 3 μM SirT1, 500 μM NAD+, 300 μM p53mer, various concentrations of suramin; FIG. 11.
Description: HPLC assay: reactions were performed in 100 mM phosphate buffer pH 7.5 in a total volume of 50 μL. Each reaction contained 500 μM of NAD^+, 300 μM of p53mer and various concentrations of suramin. Reactions were initiated by addition of SirT1 to a final concentration of 3 μM. A negative control which contained 500 μM of NAD^+ and 300 μM of p53mer, but was quenched by addition of TFA before the addition of enzyme was run at the same time. The reactions were incubated at 37° C. for 20 min before being quenched by 8 of 10% TFA. The samples were then injected on an HPLC fitted to a Macherey-Nagel Nucleosil C18 column. AADPR, NAD^+ and NAM peaks were resolved using a gradient of 0 to 10% methanol in 20 mM ammonium acetate. Chromatograms were analyzed at 260 nm.
The next assay concerns the target T3, SirT3 (Homo sapiens, UniProt Q9NTG7).
T3 construct: poly histidine tag (N); made in house; host or cells: E. coli BL21-CodonPlus(DE3)-RIPL
T3 sequence (Q9NTG7 1-399): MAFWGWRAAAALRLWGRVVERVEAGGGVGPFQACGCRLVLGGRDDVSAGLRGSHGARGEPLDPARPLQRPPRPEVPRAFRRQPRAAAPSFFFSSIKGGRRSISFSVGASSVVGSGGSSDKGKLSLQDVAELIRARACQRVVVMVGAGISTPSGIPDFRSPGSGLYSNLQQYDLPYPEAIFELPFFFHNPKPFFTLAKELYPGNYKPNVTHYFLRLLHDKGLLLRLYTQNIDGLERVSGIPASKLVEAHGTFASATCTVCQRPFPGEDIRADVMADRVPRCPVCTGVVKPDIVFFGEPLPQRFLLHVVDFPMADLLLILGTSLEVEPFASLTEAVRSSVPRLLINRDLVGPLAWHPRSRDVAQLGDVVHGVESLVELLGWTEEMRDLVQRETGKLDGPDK
The assay is described as follows: Sirtuin inhibitor screening pulldown assay (NAD+, azido-thiotripeptide, alkynyl-biotin; SDS-PAGE, silver stain). It counts as biochemical. The conditions noted are these: 500 μM inhibitor; sirtuin mixture, 4.9 μM SirT3, 500 μM NAD+, 200 μM 4-azido-BzlK(AcS)AAOMe; FIG. 10. On the procedure: as §1, §2

In another assay the test system is sirtuin. Conditions: known sirtuin inhibitor; cited from earlier work.
Assay [3] deals with class III HDACs (sirtuins). The assay is described as follows: Sirtuin inhibitor screening pulldown assay on sirtuin mixture. It counts as biochemical. The conditions noted are these: 20 μM inhibitor; mixture of SirT1, SirT2, SirT3, SirT5, SirT6; FIG. 10. Here is the method: as §1, §2

Molecules are shown by their SMILES.

The values that follow come from patent publication US9290791B2, “Reagents and methods for sirtuin capture” (CORNELL UNIVERSITY, priority 2010, dated 2016).

For `Cc1ccc(C(=O)Nc2ccc(S(=O)(=O)O)c3cc(S(=O)(=O)O)cc(S(=O)(=O)O)c23)cc1NC(=O)c1cccc(NC(=O)Nc2cccc(C(=O)Nc3cc(C(=O)Nc4ccc(S(=O)(=O)O)c5cc(S(=O)(=O)O)cc(S(=O)(=O)O)c45)ccc3C)c2)c1` [Suramin, suramin], at SirT1 [1], the “SirT1 captured by standard pulldown assay” value was “less”. The “SirT5 captured by standard pulldown assay” value at SirT5 is “less”. On SirT1 [2], the “inhibition confirmed by HPLC assay” value is listed as “confirmed”. Further, the “SirT3 captured by standard pulldown assay” value on SirT3 is “less”. Moreover, the IC50 entry in the assay on sirtuin is reported as “low micromolar range”.
Turning to `CC(/C=C/C(=O)NO)=C\[C@@H](C)C(=O)c1ccc(N(C)C)cc1` [TSA, trichostatin A], in assay [3], the “effect on sirtuin capture in pulldown assay” value is reported as “no effects”.
